The record followed here is patent US10266511B2, “No-releasing nitrooxy-chromene conjugates” (priority 2014, dated 2019).

This assay deals with PGE2 production. Briefly: Rat air-pouch model for acute inflammation (exudate PGE2 by ELISA). The assay is classed as in vivo, Sprague-Dawley rats. The conditions noted are these: oral gavage 0.01 mmol/kg 2 h before carrageenan, exudate 4 h after carrageenan. As for the experimental part: A study of chromene release is assessed by measurement of PGE2 levels, which are indicative of inflammatory response. Compounds of the present invention lower the inflammatory response by selective COX-2 inhibition, decreasing PGE-2 levels in patients.
Animals: Sprague-Dawley rats (Charles River Laboratories, R #3234, PO #738990, male, 160-180 g) are received, individually examined, and housed in cages of five rats each. The rats are ear notched for identification purposes.
Compounds and dosing solutions: The vehicle is prepared by dissolving 40 g (2-hydroxypropyl)-β-cyclodextrin (HP-β-CD, Sigma, Cat. 332593, lot MKBJ5858V) in 160 mL sterile saline for injection, USP (Hospira, lot 26-801-FW) making a 25% solution which is filter sterilized (0.2 μm, Nalgene, Cat. 151-4020, lot 1095610). A 1% carrageenan solution is prepared by dissolving 0.6 g λ-carrageenan (Fluka, Cat. 22049, lot 1318338) in hot 60 mL sterile saline for injection, USP. This solution is stored at 4-8° C. Test compounds are dissolved in DMSO (Fisher Scientific, Cat. D128-500, lot 874999) to make 75 mM stocks. 0.25 mL of compound DMSO stocks are mixed with 12.5 mL of HP-β-CD solution at 50° C. (maximum DMSO concentration is 2% of the final volume of vehicle,). […]
Day 6—Compound administration and carrageenan insult: At commencement of the study, each rat is weighed and sorted into treatment groups of 5 rats/group based upon average weight. […] The pouch is gently massaged, the exudate immediately removed, and exudate volume recorded. […]
Data analysis: The exudate samples are thawed to room temperature and assayed by ELISA for PGE2 (R&D Systems, Cat. KGE004B, lot 307711). Statistical significance of treatments on mean exudate volumes are determined by comparison of means for treatment groups with vehicle group. Mean cytokine concentrations and standard deviations are determined for each group. Statistical significance of treatments on cytokine concentrations are determined for each compound group compared to vehicle group. Statistical significance (p-value) is calculated vs control groups by Student's t-Test. […]
A general note: In an ELISA, binding on a coated surface is turned into a signal by an enzyme label.
For `CC(C)(C)c1cc2c(cc1Cl)C=C(C(=O)OC(CO[N+](=O)[O-])CO[N+](=O)[O-])C(C(F)(F)F)O2` (stereo not drawn) [Example 22a, 1,3-bis(Nitrooxy)propan-2-yl 7-(tert-butyl)-6-chloro-2-(trifluoromethyl)-2H-chromene-3-carboxylate], the “% Inhibition of PGE2 production relative to control (+/−S.D.)” value is given as 75.4 (+/−9.1) %.

As for `CC(C)(C)c1cc2c(cc1Cl)C=C(C(=O)O[C@H]1CO[C@H]3[C@@H]1OC[C@H]3O[N+](=O)[O-])[C@@H](C(F)(F)F)O2` [Example 33, (S)-(3S,3aR,6R,6aS)-6-(nitrooxy)hexahydrofuro[3,2-b]furan-3-yl 7-(tert-butyl)-6-chloro-2-(trifluoromethyl)-2H-chromene-3-carboxylate], the “% Inhibition of PGE2 production relative to control (+/−S.D.)” value is listed as 91.8 (+/−4.9) %.

On to `CC(C)(C)c1cc2c(cc1Cl)C=C(C(=O)O[C@H]1CO[C@H]3[C@@H]1OC[C@H]3O[N+](=O)[O-])C(C(F)(F)F)O2` (stereo partly drawn) [Example 33a, (3S,3aR,6R,6aS)-6-(nitrooxy)hexahydrofuro[3,2-b]furan-3-yl 7-(tert-butyl)-6-chloro-2-(trifluoromethyl)-2H-chromene-3-carboxylate], for which the “% Inhibition of PGE2 production relative to control (+/−S.D.)” value is 76.7 (+/−7.8) %.
